This note sets out measurements from article PMC10661491 (Virus Research, 2023).

Broadly, the IC50 is the concentration that inhibits the measured activity by half.

Data set [1] deals with ASFV. Type of data set: cell-based, African Swine Fever Virus (ASFV).
For data set [2], the system named is macropinocytosis of PAMs. Type of data set: cell-based, pigs.
Data set [3] has as its system PI3K/Akt pathway. Type of data set: cell-based, pigs.
The subject of data set [4] is ASFV. Type of data set: cell-based, African Swine Fever Virus (ASFV). This is another data set of the same source.
Data set [5] deals with ASFV. Kind of data set: microbe, parasite or virus in culture. The settings on record: African swine fever virus, read-out: IC50 against ASFV. Type of data set: cell-based.
Data set [6] relates to ASFV. Kind of data set: microbe, parasite or virus in culture. Type of data set: cell-based. The settings on record: African swine fever virus, BMDM, read-out: IC50 against ASFV.
Data set [7] has as its system ASFV. Kind of data set: microbe, parasite or virus in culture. The settings on record: African swine fever virus, MA104, read-out: IC50 against ASFV. Type of data set: cell-based.
Data set [8] has as its system ASFV. Type of data set: cell-based, African Swine Fever Virus (ASFV). The source holds these as a separate data set.
The subject of data set [9] is ASFV. Type of data set: cell-based, African Swine Fever Virus (ASFV). The source holds these as a separate data set.
The test system of data set [10] is ASFV. Type of data set: cell-based, African Swine Fever Virus (ASFV). This is another data set of the same source.
Data set [11] concerns ASFV. Type of data set: cell-based, African Swine Fever Virus (ASFV). This is another data set of the same source.
Data set [12] concerns clathrin-mediated endocytosis of PAMs. Type of data set: cell-based, pigs.
For data set [13], the system named is LSDV. Type of data set: cell-based, Lumpy Skin Disease Virus (LSDV).
Data set [14] concerns PEDV. Type of data set: cell-based, Porcine Epidemic Diarrhea Virus (PEDV).
Data set [15] has as its system Vero cells.
In data set [16] the test system is MDBK cells.
In data set [17] the test system is IPEC-J2 cells.

Molecules are shown by their SMILES. Read-outs that look alike come from different tables or passages of the source.

`O=c1cc(N2CCOCC2)oc2c(-c3ccccc3)cccc12` [LY294002]: the “expression of ASFV p72 (Western Blot, Fig. 7(B))” value in data set [1] is reported as “not detected”. In addition, the “uptake of dextran-Alexa647 by PAMs” value in data set [2] is “no uptake of dextran-Alexa647”. In addition, in [3], the “phosphorylation of Akt (Western Blot, Fig. 7(B))” value was “completely inhibited”. Moreover, in data set [4], the “levels of CP204L and B646L” value is given as “significantly suppressed”.

Regarding `COc1ccc2cc1Oc1ccc(cc1)C[C@H]1c3cc(c(OC)cc3CCN1C)Oc1c(OC)c(OC)cc3c1[C@H](C2)N(C)CC3` [TET, Tetrandrine], the IC50 in [5] was found to be 450 nM. The IC50 in data set [6] is 1150 nM. Also, the IC50 in data set [7] is 870 nM. For the same compound, in [8], the “ASFV-infected (fluorescent) PAMs by IFA” value was “hardly any fluorescent PAMs were observed”. In [1], the “expression level of ASFV p72 (Western Blot)” value is “dose-dependent inhibition”; the “expression of ASFV p72 (Western Blot, Fig. 7(B))” value is listed as “not detected”; the “inhibition rate of TET on ASFV compared to the LY294002 control group” value is around 0%; the “level of ASFV-p72 protein (Western Blot)” value is “significantly reduced”. Besides, the “ASFV p72 expression level by Western Blot, single-stage treatment” value in data set [9] is “significant reduction in ASFV p72 expression level was observed only during the internalization stage”. Moreover, the “ASFV infection after co-incubation of TET and ASFV (virucidal effect)” value in [10] is on record as “did not significantly reduce ASFV infection”. Moreover, the ASFV infection level entry in data set [11] is on record as “less than 0.5%”. Besides, the “transferrin-Alexa594 internalization, treated versus untreated group” value in data set [12] was “no significant difference”. In [2], the “Dext (dextran-Alexa647) fluorescence signal, treated versus untreated group” value is on record as “completely disappeared” and the “uptake of dextran-Alexa647 by PAMs” value is given as “no uptake of dextran-Alexa647”. In [3], the “phosphorylation of Akt (Western Blot, Fig. 7(B))” value is given as “partially inhibited” and the “phosphorylation of Akt activated by ASFV internalization” value is given as “inhibited the phosphorylation of Akt”. In addition, the “levels of CP204L and B646L” value in [4] is “significantly suppressed”. Further, the “inhibitory effect on LSDV (LSDV 117 protein, Western Blot)” value in [13] was “dose-dependent inhibitory effect”. In addition, the “inhibitory effect on PEDV (PEDV N protein, Western Blot)” value in [14] was “dose-dependent inhibitory effect”. For the same compound, in data set [15], the cytotoxicity entry was “no cytotoxicity”. In addition, the cytotoxicity entry in data set [16] is “no cytotoxicity”. For the same compound, the cytotoxicity entry in data set [17] is reported as “no cytotoxicity”.
